Marks after values point to notes of the source that are not given here.
Tested on: Caco-2 monolayer
Experiment: Caco-2 monolayer transmembrane transport, apical to basolateral
Format: in vitro ADME, human
Conditions: for PappAtoB: 40 µM flavonoid, 6 h, A to B, mean ± SD (n = 3); for apparent permeability coefficient (in words): comparison among the dietary flavonoids, Table 2
[1] = RD (rice flour digested products) 400 µg/mL
[2] = WD (wheat flour digested products) 400 µg/mL

SMILES | PappAtoB (No substrate) | PappAtoB [1] | Increase in PappAtoB (RD vs no substrate) | Increase in PappAtoB (WD vs no substrate) | apparent permeability coefficient (in words) | PappAtoB [2] | change of apparent permeability coefficient (in words) (RD group vs no substrate) | change of apparent permeability coefficient (in words) (WD group vs no substrate)
Oc1cc(O)c2c(c1)O[C@H](c1ccc(O)c(O)c1)[C@@H](O)C2 [(+)-Catechin] | 11.22 ± 0.06^a × 10^-6 cm/s | 18.75 ± 0.09^b × 10^-6 cm/s | 0.67 | −0.04 | notably higher apparent permeability coefficients | – | – | –
Oc1cc(O)c2c(c1)O[C@H](c1ccc(O)c(O)c1)[C@H](O)C2 [(-)-Epicatechin] | – | 37.30 ± 0.04^c × 10^-6 cm/s | 0.62 | 0.18 | notably higher apparent permeability coefficients | 27.24 ± 0.45^b × 10^-6 cm/s | – | –
O=c1cc(-c2ccc(O)cc2)oc2cc(O[C@@H]3O[C@H](CO)[C@@H](O)[C@H](O)[C@H]3O)cc(O)c12 [Apigenin-7-O-glucoside] | – | 6.37 ± 0.02^a × 10^-6 cm/s | 0.11 | 0.95 | – | 11.24 ± 0.64^b × 10^-6 cm/s | – | –
O=c1cc(-c2ccc(O)cc2)oc2cc(O)cc(O)c12 [Apigenin] | – | 3.13 ± 0.01^b × 10^-6 cm/s | 0.90 | 1.54 | comparatively poor | 4.18 ± 0.06^c × 10^-6 cm/s | – | –
O=c1cc(-c2ccccc2)oc2cc(O)c(O)c(O)c12 [Baicalein] | – | 2.28 ± 0.01^a × 10^-6 cm/s | −0.21 | 0.31 | comparatively poor | 3.79 ± 0.10^c × 10^-6 cm/s | decrease in the apparent permeability coefficient | increase
OC[C@H]1O[C@@H](Oc2cc3c(O)cc(O)cc3[o+]c2-c2ccc(O)c(O)c2)[C@H](O)[C@@H](O)[C@@H]1O [Cyanidin-3-O-glucoside] | 7.96 ± 0.08^a × 10^-6 cm/s | 7.85 ± 0.07^a × 10^-6 cm/s | −0.01 | 0.00 | – | 7.97 ± 0.06^a × 10^-6 cm/s | – | –
O=C1c2c(O)cc(O)cc2O[C@H](c2cc(O)c(O)c(O)c2)[C@H]1O [Dihydromyricetin] | – | 16.38 ± 0.03^b × 10^-6 cm/s | −0.05 | −0.14 | notably higher apparent permeability coefficients | 14.82 ± 0.15^a × 10^-6 cm/s | – | –
COc1ccc(-c2coc3cc(O)ccc3c2=O)cc1 [Formononetin] | – | 12.01 ± 0.01^a × 10^-6 cm/s | −0.49 | −0.05 | notably higher apparent permeability coefficients | 22.68 ± 0.95^b × 10^-6 cm/s | decrease in permeability | –
O=c1c(O)c(-c2ccccc2)oc2cc(O)cc(O)c12 [Galangin] | – | 8.76 ± 0.01^b × 10^-6 cm/s | 0.28 | 0.75 | – | 12.01 ± 0.49^c × 10^-6 cm/s | – | –
O=c1c(-c2ccc(O)cc2)coc2cc(O)cc(O)c12 [Genistein] | – | 14.45 ± 0.09^b × 10^-6 cm/s | 0.21 | 0.92 | – | 22.89 ± 0.09^c × 10^-6 cm/s | – | –
COc1ccc([C@@H]2CC(=O)c3c(O)cc(O)cc3O2)cc1O [Hesperetin] | – | 1.98 ± 0.02^a × 10^-6 cm/s | −0.73 | 0.67 | – | 12.18 ± 0.53^c × 10^-6 cm/s | decrease in permeability | –
COc1cc(-c2oc3cc(O)cc(O)c3c(=O)c2O[C@@H]2O[C@H](CO[C@@H]3O[C@@H](C)[C@H](O)[C@@H](O)[C@H]3O)[C@@H](O)[C@H](O)[C@H]2O)ccc1O [Isorhamnetin-3-O-rutinoside] | 7.78 ± 0.05^b × 10^-6 cm/s | 5.40 ± 0.09^a × 10^-6 cm/s | −0.31 | 0.50 | – | 11.68 ± 0.07^c × 10^-6 cm/s | – | –
COc1cc(-c2oc3cc(O)cc(O)c3c(=O)c2O)ccc1O [Isorhamnetin] | – | 6.64 ± 0.03^a × 10^-6 cm/s | −0.29 | 0.23 | – | 11.42 ± 0.91^c × 10^-6 cm/s | – | –
O=c1c(O)c(-c2ccc(O)cc2)oc2cc(O[C@@H]3O[C@H](CO)[C@@H](O)[C@H](O)[C@H]3O)cc(O)c12 [Kaempferol-7-O-β-glucoside] | 0.64 ± 0.05^a × 10^-6 cm/s | 1.26 ± 0.02^b × 10^-6 cm/s | 0.96 | 4.71 | comparatively poor | 3.67 ± 0.15^c × 10^-6 cm/s | – | –
O=c1c(O)c(-c2cc(O)c(O)c(O)c2)oc2cc(O)cc(O)c12 [Myricetin] | – | 9.07 ± 0.01^b × 10^-6 cm/s | 0.63 | 2.21 | – | 17.79 ± 0.03^c × 10^-6 cm/s | – | –
O=C1C[C@@H](c2ccc(O)cc2)Oc2cc(O)cc(O)c21 [Naringenin] | – | 5.43 ± 0.06^a × 10^-6 cm/s | −0.57 | −0.12 | notably higher apparent permeability coefficients | 11.15 ± 1.54^b × 10^-6 cm/s | – | –
C[C@@H]1O[C@@H](O[C@H]2[C@H](Oc3cc(O)c4c(c3)O[C@H](c3ccc(O)cc3)CC4=O)O[C@H](CO)[C@@H](O)[C@@H]2O)[C@H](O)[C@H](O)[C@H]1O [Naringin] | – | 1.80 ± 0.01^b × 10^-6 cm/s | 0.34 | 0.77 | – | 2.38 ± 0.09^c × 10^-6 cm/s | – | –
O=c1c(O)c(-c2ccc(O)c(O)c2)oc2cc(O)cc(O)c12 [Quercetin] | – | 6.54 ± 0.03^a × 10^-6 cm/s | −0.29 | 0.18 | – | – | – | –
C[C@@H]1O[C@@H](Oc2c(-c3ccc(O)c(O)c3)oc3cc(O)cc(O)c3c2=O)[C@H](O)[C@H](O)[C@H]1O [Quercitrin] | – | 1.47 ± 0.05^a × 10^-6 cm/s | −0.73 | 0.72 | – | 9.61 ± 0.28^c × 10^-6 cm/s | – | –
O=C1c2c(O)cc(O)cc2OC(c2ccc(O)c(O)c2)C1O (stereo not shown) [Taxifolin] | – | 15.66 ± 0.09^a × 10^-6 cm/s | −0.37 | −0.29 | notably higher apparent permeability coefficients | 17.71 ± 0.43^b × 10^-6 cm/s | – | –
O=c1cc(-c2ccc(O)cc2)oc2c([C@@H]3O[C@H](CO)[C@@H](O)[C@H](O)[C@H]3O)c(O)cc(O)c12 [Vitexin] | – | 25.87 ± 0.04^b × 10^-6 cm/s | −0.09 | −0.46 | highest apparent permeability coefficient | 15.54 ± 0.46^a × 10^-6 cm/s | – | –
